# Where two headings read alike, the source gives them in different places.
# What was measured:
# K562 cells [1] = test: Expression pattern of RGS proteins in hemin-stimulated K562 cell maturation, Western blotting; type: cell-based; settings: 30 μM hemin, days 3, 6, 9 and 12
# Procedure: K562 cells (5×10^6 cells/10 mL) were cultured by adding 4.5 g glucose/30 μM hemin to a DMEM solvent, and 2.5 mL of the same solvent was added at 3-day intervals. Cells were collected on days 3, 6, 9, and 12, and were dissolved in 100 μL of SDS Loading Buffer (6 M Urea). 10 μL were run on a 12% SDS-GEL, and after transferring to a blotting membrane, this was reacted with respective antibodies to the R4 RGS family (herein RGS1/RGS3/RGS16/RGS18) and another RGS family (herein, RGS14).
# K562 cells [2] = settings: 0.125 mM, with 30 μM hemin
# Description: Cells were collected on days 0, 3, 6, 12, and 15, and the ability to assist induction of erythrocyte differentiation was examined using cell surface markers, glycophorin A (CD235a) and transferrin receptor (CD71), as indicators.
# CD235(+/−)/CD71(++) represent K562 proerythroblast-like cells, CD235(+)/CD71(++) represent K562 basophilic erythroblast-like cells, CD235(+)/CD71(+) represent K562 polychromatic erythroblast-like cells, and CD235(+)/CD71(+/−) represent K562 orthochromatic erythroblast-like cells or reticulocytes. K562 cells are CD71-non-positive cells positioned upstream of pro-erythroblasts.
# (§1) Using the same system that uses K562 cells for evaluating induction of differentiation, CD235/CD71 which are the existing indicators for induction of erythrocyte differentiation, and the new indicators lactoferrin (Lf)/C5a receptor (CD88) were compared and examined. Cells were collected on days 0, 3, 6, 12, and 15, and the ability to induce differentiation into erythrocytes was examined using Lf/CD88 as the indicators.
# as §1, with “FAS ligand (CD178)/C5a” for “lactoferrin (Lf)/C5a”, “CD178/CD88” for “Lf/CD88”, “indicator.” for “indicators.”
Substance,expression of RGS14 (K562 cells [1]),expression of the R4 RGS family (RGS1/RGS3/RGS16/RGS18) (K562 cells [1]),induction of differentiation after erythroblast formation (K562 cells [2]; markers CD178/CD88),number of days taken for maturation to form erythroblasts (K562 cells [2]; markers CD178/CD88),induction of differentiation after erythroblast formation (K562 cells [2]; markers CD235/CD71),number of days taken for maturation until erythroblast formation (K562 cells [2]; markers CD235/CD71),induction of differentiation after erythroblast formation (K562 cells [2]; markers Lf/CD88),number of days taken for maturation until erythroblast formation (K562 cells [2]; markers Lf/CD88)
hemin,did not change,increased,,,,,,
manganese chloride,,,inhibited,reduced,inhibited,reduced,inhibited,reduced
